The source made the active and inactive calls. The rule behind the calls is not given here.
Tests used:
[1] = biological target: Alpha amylase (Homo sapiens) (UniProt P0DUB6); experiment: Inhibition of alpha-amylase (unknown origin) using starch as substrate at 100 to 500 ug incubated for 10 min prior to substrate addition measured after 15 min by DNSA method relative to control
[2] = biological target: Angiotensin-converting enzyme (Homo sapiens) (UniProt P12821); experiment: Inhibition of ACE (unknown origin) using Hippuryl-His-Leu as substrate at 1 to 10 ug incubated for 10 min prior to substrate addition measured after 45 min by spectrophotometric analysis relative to control
Sequence of Angiotensin-converting enzyme (Homo sapiens) (P12821 whole entry): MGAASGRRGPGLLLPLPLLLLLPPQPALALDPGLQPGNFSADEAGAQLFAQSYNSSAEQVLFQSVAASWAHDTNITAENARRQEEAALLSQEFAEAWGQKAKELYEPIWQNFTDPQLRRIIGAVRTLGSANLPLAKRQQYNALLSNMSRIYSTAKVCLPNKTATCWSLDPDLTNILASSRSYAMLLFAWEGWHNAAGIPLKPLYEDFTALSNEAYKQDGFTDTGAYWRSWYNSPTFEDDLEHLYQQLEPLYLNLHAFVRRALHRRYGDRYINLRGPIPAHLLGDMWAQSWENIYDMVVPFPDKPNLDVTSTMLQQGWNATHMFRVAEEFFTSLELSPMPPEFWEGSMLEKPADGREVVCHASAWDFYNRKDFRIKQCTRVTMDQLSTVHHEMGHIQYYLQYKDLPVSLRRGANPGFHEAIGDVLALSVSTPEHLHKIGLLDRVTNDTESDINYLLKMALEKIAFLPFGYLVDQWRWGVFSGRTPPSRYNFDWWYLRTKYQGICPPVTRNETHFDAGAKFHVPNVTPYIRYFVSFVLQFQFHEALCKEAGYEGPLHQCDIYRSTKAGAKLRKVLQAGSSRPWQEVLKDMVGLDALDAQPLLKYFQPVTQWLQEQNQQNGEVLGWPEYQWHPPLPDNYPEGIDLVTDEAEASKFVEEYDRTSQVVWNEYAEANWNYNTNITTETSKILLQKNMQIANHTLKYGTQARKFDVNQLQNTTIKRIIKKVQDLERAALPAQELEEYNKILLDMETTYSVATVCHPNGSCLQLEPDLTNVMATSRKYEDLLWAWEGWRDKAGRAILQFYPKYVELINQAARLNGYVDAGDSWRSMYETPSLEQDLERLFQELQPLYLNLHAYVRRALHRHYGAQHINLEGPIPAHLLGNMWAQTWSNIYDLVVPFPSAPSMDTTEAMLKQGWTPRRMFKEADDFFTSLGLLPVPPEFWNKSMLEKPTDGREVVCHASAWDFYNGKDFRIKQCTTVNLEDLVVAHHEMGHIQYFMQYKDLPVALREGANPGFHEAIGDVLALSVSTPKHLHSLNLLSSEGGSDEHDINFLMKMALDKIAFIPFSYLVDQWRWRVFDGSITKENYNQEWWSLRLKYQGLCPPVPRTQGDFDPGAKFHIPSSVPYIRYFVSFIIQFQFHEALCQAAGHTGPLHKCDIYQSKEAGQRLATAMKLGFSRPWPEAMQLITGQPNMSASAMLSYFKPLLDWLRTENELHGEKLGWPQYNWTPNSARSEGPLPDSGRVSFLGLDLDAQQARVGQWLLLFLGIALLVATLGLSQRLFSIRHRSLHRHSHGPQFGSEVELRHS

[3] = biological target: Angiotensin-converting enzyme (Homo sapiens) (UniProt P12821); experiment: Inhibition of ACE (unknown origin) using Hippuryl-His-Leu as substrate at 10 ug incubated for 10 min prior to substrate addition measured after 45 min by spectrophotometric analysis relative to control

Sequence of Alpha amylase (Homo sapiens) (P0DUB6 whole entry, looked up): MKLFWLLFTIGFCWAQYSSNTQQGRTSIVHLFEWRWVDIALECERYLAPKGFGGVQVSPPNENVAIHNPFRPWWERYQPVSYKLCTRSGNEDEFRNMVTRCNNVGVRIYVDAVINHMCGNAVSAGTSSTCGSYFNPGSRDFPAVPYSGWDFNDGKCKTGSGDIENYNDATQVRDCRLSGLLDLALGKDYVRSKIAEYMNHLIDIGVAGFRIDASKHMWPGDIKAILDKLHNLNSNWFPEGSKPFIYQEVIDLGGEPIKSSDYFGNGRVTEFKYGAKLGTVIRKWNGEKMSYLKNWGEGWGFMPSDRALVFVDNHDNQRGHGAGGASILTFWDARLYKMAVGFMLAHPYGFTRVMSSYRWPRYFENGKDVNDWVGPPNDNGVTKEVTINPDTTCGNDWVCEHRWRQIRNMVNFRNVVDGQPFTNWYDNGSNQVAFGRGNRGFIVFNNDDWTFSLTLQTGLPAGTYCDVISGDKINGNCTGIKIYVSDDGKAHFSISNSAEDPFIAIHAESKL

| SMILES | inhibition [1] | inhibition [2] | inhibition [3] [%] |
| --- | --- | --- | --- |
| Cc1nnc(-c2ccccc2-c2ccc(CN3CCOCC3)cc2)o1 | inactive | inactive |  |
| Cc1nnc(-c2ccccc2-c2ccc(CN3C(=O)CSC3=O)cc2)o1 | inactive | inactive |  |
| Cc1nnc(-c2ccccc2-c2ccc(CN3CCNCC3)cc2)o1 | inactive | inactive |  |
| Cc1nnc(-c2ccccc2-c2ccc(CN3CCN(C)CC3)cc2)o1 | inactive | inactive |  |
| c1ccc(-c2nnn[nH]2)c(-c2ccc(CN3CCOCC3)cc2)c1 | inactive | inactive |  |
| CN1CCN(Cc2ccc(-c3ccccc3-c3nnn[nH]3)cc2)CC1 |  |  | 92 |
| Cc1nnc(-c2ccccc2-c2ccc(Cn3ccnc3)cc2)o1 | inactive | inactive |  |
| c1ccc(-c2nnn[nH]2)c(-c2ccc(Cn3cncn3)cc2)c1 |  |  | 80 |
| O=C1CSC(=O)N1Cc1ccc(-c2ccccc2-c2nnn[nH]2)cc1 |  | inactive |  |
| O=C(O)C1CCN(Cc2ccc(-c3ccccc3-c3nnn[nH]3)cc2)CC1 | inactive | inactive |  |
| c1ccc(-c2nnn[nH]2)c(-c2ccc(CN3CCNCC3)cc2)c1 |  |  | 83 |
| c1ccc(-c2nnn[nH]2)c(-c2ccc(Cn3ccnc3)cc2)c1 |  |  | 80 |
| Cc1nnc(-c2ccccc2-c2ccc(Cn3cncn3)cc2)o1 | inactive | inactive |  |
| OCCOCCN1CCN(Cc2ccc(-c3ccccc3-c3nnn[nH]3)cc2)CC1 |  | inactive |  |
| Cc1nnc(-c2ccccc2-c2ccc(CN3CCC(C(=O)O)CC3)cc2)o1 | inactive | inactive |  |
| Cc1nnc(-c2ccccc2-c2ccc(CN3CCN(CCOCCO)CC3)cc2)o1 | inactive | inactive |  |
